Laboratory results taken from the NIST ThermoML archive (doi:10.1021/je900596d).
Numbers after ± are expanded uncertainties.

Details: Vibrating tube method

FC(F)=C(F)C(F)(F)F [hexafluoropropene]
Details | mass density [kg/m3]
348.12 K, 1780.6 kPa, Fluid (supercritical or subcritical phases) | 126.81 ± 0.19
348.12 K, 1804.3 kPa, Fluid (supercritical or subcritical phases) | 129.36 ± 0.2
348.12 K, 1829.7 kPa, Fluid (supercritical or subcritical phases) | 132.19 ± 0.21
348.12 K, 1851.6 kPa, Fluid (supercritical or subcritical phases) | 134.57 ± 0.21
348.12 K, 1872.9 kPa, Fluid (supercritical or subcritical phases) | 137.09 ± 0.22
348.12 K, 1894.9 kPa, Fluid (supercritical or subcritical phases) | 139.69 ± 0.23
348.12 K, 1917.6 kPa, Fluid (supercritical or subcritical phases) | 142.36 ± 0.22
348.12 K, 1939.9 kPa, Fluid (supercritical or subcritical phases) | 144.88 ± 0.23
348.12 K, 1967.9 kPa, Fluid (supercritical or subcritical phases) | 148.35 ± 0.24
348.12 K, 1992.7 kPa, Fluid (supercritical or subcritical phases) | 151.5 ± 0.24
348.12 K, 2016.1 kPa, Fluid (supercritical or subcritical phases) | 154.47 ± 0.26
348.12 K, 2044.1 kPa, Fluid (supercritical or subcritical phases) | 158.31 ± 0.27
348.12 K, 2068.5 kPa, Fluid (supercritical or subcritical phases) | 161.51 ± 0.27
348.12 K, 2096.5 kPa, Fluid (supercritical or subcritical phases) | 165.49 ± 0.28
348.12 K, 2143.5 kPa, Fluid (supercritical or subcritical phases) | 172.38 ± 0.3
348.12 K, 2192.1 kPa, Fluid (supercritical or subcritical phases) | 180.05 ± 0.33
348.12 K, 2212.1 kPa, Fluid (supercritical or subcritical phases) | 183.28 ± 0.33
348.12 K, 2238.5 kPa, Fluid (supercritical or subcritical phases) | 187.82 ± 0.35
348.12 K, 2266 kPa, Fluid (supercritical or subcritical phases) | 192.69 ± 0.33
348.12 K, 2288.1 kPa, Fluid (supercritical or subcritical phases) | 196.82 ± 0.33
348.12 K, 2310.2 kPa, Fluid (supercritical or subcritical phases) | 201.01 ± 0.39
348.12 K, 2332.6 kPa, Fluid (supercritical or subcritical phases) | 205.6 ± 0.41
348.12 K, 2354 kPa, Fluid (supercritical or subcritical phases) | 210.08 ± 0.43
348.12 K, 2375.5 kPa, Fluid (supercritical or subcritical phases) | 214.74 ± 0.45
348.12 K, 2397.3 kPa, Fluid (supercritical or subcritical phases) | 219.85 ± 0.48
348.12 K, 2419.9 kPa, Fluid (supercritical or subcritical phases) | 225.48 ± 0.51
348.12 K, 2442.3 kPa, Fluid (supercritical or subcritical phases) | 231.34 ± 0.55
348.12 K, 2470.6 kPa, Fluid (supercritical or subcritical phases) | 239.59 ± 0.58
348.12 K, 2472.8 kPa, Fluid (supercritical or subcritical phases) | 240.22 ± 0.61
348.12 K, 2475.3 kPa, Fluid (supercritical or subcritical phases) | 241.04 ± 0.62
348.12 K, 2478 kPa, Fluid (supercritical or subcritical phases) | 241.76 ± 0.66
348.12 K, 2479.4 kPa, Fluid (supercritical or subcritical phases) | 242.23 ± 0.66
348.12 K, 2481.5 kPa, Fluid (supercritical or subcritical phases) | 242.88 ± 0.67
348.12 K, 2484.1 kPa, Fluid (supercritical or subcritical phases) | 243.75 ± 0.72
348.12 K, 2485.5 kPa, Fluid (supercritical or subcritical phases) | 244.17 ± 0.77
348.12 K, 2487.8 kPa, Fluid (supercritical or subcritical phases) | 244.94 ± 1.6
348.12 K, 2490.1 kPa, Fluid (supercritical or subcritical phases) | 245.8 ± 1.6
348.12 K, 2493.8 kPa, Fluid (supercritical or subcritical phases) | 247.53 ± 1.7
348.12 K, 2495.7 kPa, Fluid (supercritical or subcritical phases) | 248.38 ± 1.8
348.12 K, 2497.4 kPa, Fluid (supercritical or subcritical phases) | 248.67 ± 1.7
348.12 K, 2498.8 kPa, Fluid (supercritical or subcritical phases) | 250.42 ± 0.83
348.12 K, 2499.7 kPa, Fluid (supercritical or subcritical phases) | 251.97 ± 0.98
348.12 K, 2500.9 kPa, Fluid (supercritical or subcritical phases) | 254.86 ± 1.2
348.12 K, 2501.9 kPa, Fluid (supercritical or subcritical phases) | 260.28 ± 1.8
348.12 K, 2502.8 kPa, Fluid (supercritical or subcritical phases) | 268.19 ± 2.6
348.16 K, 2506.4 kPa, Liquid | 959.6 ± 1.2
348.16 K, 2507.7 kPa, Liquid | 959.78 ± 1.2
348.16 K, 2509 kPa, Liquid | 959.97 ± 1.2
348.16 K, 2510.7 kPa, Liquid | 960.12 ± 1.2
348.16 K, 2511.1 kPa, Liquid | 960.28 ± 1.2
348.16 K, 2513.5 kPa, Liquid | 960.38 ± 1.2
348.16 K, 2516.3 kPa, Liquid | 960.72 ± 1.2
348.16 K, 2517 kPa, Liquid | 960.83 ± 1.2
348.16 K, 2518.6 kPa, Liquid | 961.02 ± 1.2
348.16 K, 2520.1 kPa, Liquid | 961.1 ± 1.2
348.16 K, 2520.8 kPa, Liquid | 961.16 ± 1.2
348.16 K, 2522.6 kPa, Liquid | 961.35 ± 1.2
348.16 K, 2523.5 kPa, Liquid | 961.75 ± 1.2
348.16 K, 2525.5 kPa, Liquid | 961.71 ± 1.2
348.16 K, 2526.1 kPa, Liquid | 961.8 ± 1.2
348.16 K, 2530 kPa, Liquid | 962.41 ± 1.2
348.16 K, 2532.2 kPa, Liquid | 962.81 ± 1.2
348.16 K, 2535.5 kPa, Liquid | 963.11 ± 1.2
348.16 K, 2538.4 kPa, Liquid | 963.1 ± 1.2
348.16 K, 2542.3 kPa, Liquid | 963.6 ± 1.2
348.16 K, 2544.8 kPa, Liquid | 963.72 ± 1.2
348.16 K, 2547.3 kPa, Liquid | 963.99 ± 1.2
348.16 K, 2549.5 kPa, Liquid | 964.46 ± 1.1
348.16 K, 2554.5 kPa, Liquid | 964.95 ± 1.1
348.16 K, 2561 kPa, Liquid | 965.66 ± 1.1
348.16 K, 2568.5 kPa, Liquid | 966.39 ± 1.1
348.16 K, 2574.8 kPa, Liquid | 967.01 ± 1.1
348.16 K, 2581.7 kPa, Liquid | 967.68 ± 1.1
348.16 K, 2588.5 kPa, Liquid | 968.36 ± 1.1
348.16 K, 2595 kPa, Liquid | 968.97 ± 1.1
348.16 K, 2601.2 kPa, Liquid | 969.69 ± 1.1
348.16 K, 2614.7 kPa, Liquid | 970.9 ± 1.1
348.16 K, 2627.6 kPa, Liquid | 972.33 ± 1.1
348.16 K, 2633.8 kPa, Liquid | 972.9 ± 1.1
348.16 K, 2640.7 kPa, Liquid | 973.53 ± 1.1
348.16 K, 2654.7 kPa, Liquid | 974.76 ± 1.1
348.16 K, 2667.6 kPa, Liquid | 976.02 ± 1.1
348.16 K, 2680.1 kPa, Liquid | 977.1 ± 1.1
348.16 K, 2693.1 kPa, Liquid | 978.18 ± 1.1
348.16 K, 2706.1 kPa, Liquid | 979.32 ± 1.1
348.16 K, 2718.8 kPa, Liquid | 980.44 ± 1.2
348.16 K, 2730.9 kPa, Liquid | 981.5 ± 1.2
348.16 K, 2744.5 kPa, Liquid | 982.55 ± 1.2
348.16 K, 2756.9 kPa, Liquid | 983.71 ± 1.2
348.16 K, 2770.2 kPa, Liquid | 984.59 ± 1.2
348.16 K, 2782.7 kPa, Liquid | 985.9 ± 1.2
348.16 K, 2796.7 kPa, Liquid | 986.93 ± 1.2
348.16 K, 2809.4 kPa, Liquid | 987.97 ± 1.2
348.16 K, 2835.1 kPa, Liquid | 989.69 ± 1.2
348.16 K, 2847.5 kPa, Liquid | 990.63 ± 1.2
348.16 K, 2861.9 kPa, Liquid | 991.98 ± 1.2
348.16 K, 2875.4 kPa, Liquid | 992.69 ± 1.2
348.16 K, 2888.5 kPa, Liquid | 993.69 ± 1.2
348.16 K, 2902.4 kPa, Liquid | 994.77 ± 1.2
348.16 K, 2923.1 kPa, Liquid | 996.32 ± 1.2
348.16 K, 2943.1 kPa, Liquid | 997.63 ± 1.1
348.16 K, 2969.1 kPa, Liquid | 999.28 ± 1.2
348.16 K, 2994.8 kPa, Liquid | 1001.06 ± 1.2
348.16 K, 3015.4 kPa, Liquid | 1002.63 ± 1.2
348.16 K, 3036.5 kPa, Liquid | 1004.18 ± 1.1
348.16 K, 3061.5 kPa, Liquid | 1005.54 ± 1.2
348.16 K, 3081.9 kPa, Liquid | 1006.76 ± 1.2
348.16 K, 3102.2 kPa, Liquid | 1008.02 ± 1.1
348.16 K, 3129.1 kPa, Liquid | 1009.6 ± 1.1
348.16 K, 3135.2 kPa, Liquid | 1009.88 ± 1.1
348.16 K, 3142.1 kPa, Liquid | 1010.13 ± 1.1
348.16 K, 3154.2 kPa, Liquid | 1010.88 ± 1.1
348.16 K, 3176.2 kPa, Liquid | 1012.35 ± 1.1
348.16 K, 3202.5 kPa, Liquid | 1013.88 ± 1.1
348.16 K, 3223.6 kPa, Liquid | 1015.07 ± 1.1
348.16 K, 3244.1 kPa, Liquid | 1016.31 ± 1.1
348.16 K, 3266.6 kPa, Liquid | 1017.56 ± 1.1
348.16 K, 3287 kPa, Liquid | 1018.73 ± 1.1
348.16 K, 3310.2 kPa, Liquid | 1020.02 ± 1.1
348.16 K, 3316.2 kPa, Liquid | 1020.28 ± 1.1
348.16 K, 3323.1 kPa, Liquid | 1020.54 ± 1.1
348.16 K, 3330.6 kPa, Liquid | 1020.95 ± 1.1
348.16 K, 3337.3 kPa, Liquid | 1021.47 ± 1.1
348.16 K, 3343.7 kPa, Liquid | 1021.72 ± 1.1
348.16 K, 3351.1 kPa, Liquid | 1022.04 ± 1.1
348.16 K, 3359.3 kPa, Liquid | 1022.61 ± 1.1
348.16 K, 3365.4 kPa, Liquid | 1022.8 ± 1.1
348.16 K, 3373.8 kPa, Liquid | 1023.35 ± 1.1
348.16 K, 3380 kPa, Liquid | 1023.59 ± 1.1
348.16 K, 3386.2 kPa, Liquid | 1023.86 ± 1.1
348.16 K, 3392.5 kPa, Liquid | 1024.46 ± 1.1
348.16 K, 3400.2 kPa, Liquid | 1024.64 ± 1.1
348.16 K, 3423.6 kPa, Liquid | 1025.65 ± 1.1
